Measurements taken from patent publication US20140135270A1, “MACROCYCLIC COMPOUNDS FOR INHIBITION OF INHIBITORS OF APOPTOSIS” (Ensemble Therapeutics Corp., priority 2012, published 2014).

Key:
[1] = target: T1, His-BIR3 (241-356, XIAP) (Homo sapiens, UniProt P98170); assay: XIAP-BIR3/SMAC Homogeneous Time Resolved Fluorescence (HTRF) Assay; format: binding; conditions: fluorescein labeled SMAC peptide
T1 construct: additions of His-BIR3 (241-356, XIAP), fluorescein labeled SMAC peptide

[2] = target: T2, His-BIR2-3 (125-356, C202A/C213G, XIAP) (Homo sapiens, UniProt P98170, C202A/C213G); assay: XIAP-BIR2-3 Dimeric SMAC Peptide Homogeneous Time Resolved Fluorescence (HTRF) Assay; format: binding; conditions: fluorescein labeled dimeric SMAC peptide
T2 construct: additions of His-BIR2-3 (125-356, C202A/C213G, XIAP), fluorescein labeled dimeric SMAC peptide
T2 sequence (P98170 125-356 C202A/C213G): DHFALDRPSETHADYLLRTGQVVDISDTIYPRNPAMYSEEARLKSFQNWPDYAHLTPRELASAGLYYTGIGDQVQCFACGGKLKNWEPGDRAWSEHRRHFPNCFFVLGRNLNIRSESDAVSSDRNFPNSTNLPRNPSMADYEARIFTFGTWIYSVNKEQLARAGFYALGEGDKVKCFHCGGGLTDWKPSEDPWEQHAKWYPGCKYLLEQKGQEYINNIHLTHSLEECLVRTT

T1 sequence (P98170 241-356): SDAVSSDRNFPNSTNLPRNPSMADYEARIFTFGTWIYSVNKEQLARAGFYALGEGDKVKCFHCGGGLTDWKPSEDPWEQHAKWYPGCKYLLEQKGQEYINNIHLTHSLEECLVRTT

CN[C@@H](C)C(=O)N[C@H](C(=O)N1C[C@H]2C/C=C/COc3ccc(cc3)C[C@@H](C(=O)O)NC(=O)[C@H](Cc3ccc4ccccc4c3)NC(=O)[C@@H]3C[C@@H](CN3C(=O)[C@@H](NC(=O)[C@H](C)NC)C(C)(C)C)NC(=O)c3ccc(cc3)C[C@@H](C(=O)O)NC(=O)C(Cc3ccc4ccccc4c3)NC(=O)[C@@H]1C2)C(C)(C)C (stereo partly drawn) [Example 28]
IC50 [1]: 3.5 nM | IC50 [2]: 1.1 nM

CN[C@@H](C)C(=O)N[C@H](C(=O)N1C[C@@H]2C[C@H]1C(=O)N[C@@H](Cc1ccc3ccccc3c1)C(=O)N[C@H](C(=O)O)Cc1ccc(cc1)OC/C=C/CO[C@H]1C[C@@H](C(=O)N[C@@H](C(c3ccccc3)c3ccccc3)C(=O)N[C@H](C(=O)NS(=O)(=O)C3CC3)Cc3ccc(cc3)OCc3cn2nn3)N(C(=O)[C@@H](NC(=O)[C@H](C)NC)C(C)(C)C)C1)C(C)(C)C [Example 104]
IC50 [1]: 105 nM | IC50 [2]: 8.7 nM

CN[C@@H](C)C(=O)N[C@H](C(=O)N1C[C@@H]2C[C@H]1C(=O)N[C@@H](Cc1ccc3ccccc3c1)C(=O)N[C@H](C(=O)O)CCC(=O)N[C@H]1C[C@@H](C(=O)N[C@@H](Cc3ccc4ccccc4c3)C(=O)N[C@H](C(=O)O)Cc3ccc(cc3)OC/C=C/CO2)N(C(=O)[C@@H](NC(=O)[C@H](C)NC)C(C)(C)C)C1)[C@H](C)O [Example 57]
IC50 [1]: 201 nM | IC50 [2]: 12.1 nM

CN[C@@H](C)C(=O)N[C@H](C(=O)N1CC[C@H]2OCc3cn(nn3)CC[C@@H](C(=O)OC)NC(=O)[C@H](Cc3ccc4ccccc4c3)NC(=O)[C@@H]3[C@@H](CCN3C(=O)[C@@H](NC(=O)[C@H](C)NC)C(C)(C)C)OC/C=C/CC[C@@H](C(=O)O)NC(=O)[C@H](Cc3ccc4ccccc4c3)NC(=O)[C@H]21)C(C)(C)C [Example 16]
IC50 [1]: 6.2 nM | IC50 [2]: 3.5 nM

CN[C@@H](C)C(=O)N[C@H](C(=O)N1C[C@@H]2C[C@H]1C(=O)N[C@@H](Cc1ccc3ccccc3c1)C(=O)N[C@H](C(=O)O)Cc1ccc(cc1)OC/C=C/CO[C@H]1C[C@@H](C(=O)N[C@@H](C(c3ccccc3)c3ccccc3)C(=O)N[C@H](C(=O)O)Cc3ccc(cc3)C(=O)N2)N(C(=O)[C@@H](NC(=O)[C@H](C)NC)C(C)(C)C)C1)C(C)(C)C [Example 62]
IC50 [1]: 60.2 nM | IC50 [2]: 8 nM

CN[C@@H](C)C(=O)N[C@H](C(=O)N1C[C@@H]2C[C@H]1C(=O)N[C@@H](Cc1ccc3ccccc3c1)C(=O)N[C@H](C(=O)O)Cc1ccc(cc1)OCc1cn(nn1)[C@H]1C[C@@H](C(=O)N[C@@H](Cc3ccc4ccccc4c3)C(=O)N[C@H](C(=O)O)Cc3ccc(cc3)OCCCCO2)N(C(=O)[C@@H](NC(=O)[C@H](C)NC)C(C)(C)C)C1)C(C)(C)C [Example 121]
IC50 [1]: 11.6 nM | IC50 [2]: 7.9 nM

CN[C@@H](C)C(=O)N[C@H](C(=O)N1C[C@@H]2C[C@H]1C(=O)N[C@@H](Cc1ccc3ccccc3c1)C(=O)N[C@H](C(=O)O)Cc1ccc(cc1)OCCCC[C@H]1C[C@@H](C(=O)N[C@@H](Cc3ccc4ccccc4c3)C(=O)N[C@H](C(=O)NS(=O)(=O)C3CC3)Cc3ccc(cc3)OCc3cn2nn3)N(C(=O)[C@@H](NC(=O)[C@H](C)NC)C(C)(C)C)C1)C(C)(C)C [Example 87]
IC50 [1]: 2.4 nM | IC50 [2]: 1.3 nM

CN[C@@H](C)C(=O)N[C@H](C(=O)N1C[C@@H]2C[C@H]1C(=O)N[C@@H](Cc1ccc3ccccc3c1)C(=O)N[C@H](C(=O)O)Cc1ccc(cc1)OCCCC[C@H]1C[C@@H](C(=O)N[C@@H](Cc3ccc4ccccc4c3)C(=O)N[C@H](C(=O)NS(C)(=O)=O)Cc3ccc(cc3)OCc3cn2nn3)N(C(=O)[C@@H](NC(=O)[C@H](C)NC)C(C)(C)C)C1)C(C)(C)C [Example 2]
IC50 [1]: 2.3 nM | IC50 [2]: 0.8 nM

CN[C@@H](C)C(=O)N[C@@H](CCC(=O)O)C(=O)N1C[C@@H]2C[C@H]1C(=O)N[C@@H](Cc1ccc3ccccc3c1)C(=O)N[C@H](C(=O)O)Cc1ccc(cc1)C(=O)N[C@H]1C[C@@H](C(=O)N[C@@H](Cc3ccc4ccccc4c3)C(=O)N[C@H](C(=O)O)Cc3ccc(cc3)OC/C=C/CO2)N(C(=O)[C@@H](NC(=O)[C@H](C)NC)C(C)(C)C)C1 [Example 63]
IC50 [1]: 17.9 nM | IC50 [2]: 2.7 nM

CN[C@@H](C)C(=O)N[C@H](C(=O)N1C[C@@H]2C[C@H]1C(=O)N[C@@H](Cc1ccc3ccccc3c1)C(=O)N[C@H](C(=O)O)Cc1ccc(cc1)OCc1cn(nn1)[C@H]1C[C@@H](C(=O)N[C@@H](Cc3ccc4ccccc4c3)C(=O)N[C@H](C(=O)NS(=O)(=O)C3CC3)Cc3ccc(cc3)OCCCCO2)N(C(=O)[C@@H](NC(=O)[C@H](C)NC)C(C)(C)C)C1)C(C)(C)C [Example 123]
IC50 [1]: 7.8 nM | IC50 [2]: 5.4 nM

CN[C@@H](C)C(=O)N[C@H](C(=O)N1C[C@H]2CCCCOc3ccc(cc3)C[C@@H](C(=O)NS(=O)(=O)C3CC3)NC(=O)[C@H](Cc3ccc4ccccc4c3)NC(=O)[C@@H]3C[C@H](CCCCOc4ccc(cc4)C[C@@H](C(=O)O)NC(=O)[C@H](Cc4ccc5ccccc5c4)NC(=O)[C@@H]1C2)CN3C(=O)[C@@H](NC(=O)[C@H](C)NC)C(C)(C)C)C(C)(C)C [Example 89]
IC50 [1]: 5.9 nM | IC50 [2]: 3 nM

CN[C@@H](C)C(=O)N[C@H](C(=O)N1C[C@@H]2C[C@H]1C(=O)N[C@@H](Cc1ccc3ccccc3c1)C(=O)N[C@H](C(=O)O)Cc1ccc(cc1)C(=O)N[C@H]1C[C@@H](C(=O)N[C@@H](Cc3ccc4ccccc4c3)C(=O)N[C@H](C(=O)O)Cc3ccc(cc3)OC/C=C/CO2)N(C(=O)[C@@H](NC(=O)[C@H](C)NC)C(C)(C)C)C1)C(C)C [Example 75]
IC50 [1]: 9.7 nM | IC50 [2]: 1.7 nM

CN[C@@H](C)C(=O)N[C@@H](Cc1c[nH]cn1)C(=O)N1C[C@@H]2C[C@H]1C(=O)N[C@@H](Cc1ccc3ccccc3c1)C(=O)N[C@H](C(=O)O)CCC(=O)N[C@H]1C[C@@H](C(=O)N[C@@H](Cc3ccc4ccccc4c3)C(=O)N[C@H](C(=O)O)Cc3ccc(cc3)OC/C=C/CO2)N(C(=O)[C@@H](NC(=O)[C@H](C)NC)C(C)(C)C)C1 [Example 59]
IC50 [1]: 131 nM | IC50 [2]: 24.3 nM

CN[C@@H](C)C(=O)N[C@H](C(=O)N[C@H]1C/C=C/CC[C@@H](C(=O)O)NC(=O)[C@H](Cc2ccc3ccccc3c2)NC(=O)[C@@H]2[C@@H](CCN2C(=O)[C@@H](NC(=O)[C@H](C)NC)C(C)(C)C)OCc2cn(nn2)CC[C@@H](C(=O)OC)NC(=O)[C@H](Cc2ccc3ccccc3c2)NC1=O)C(C)(C)C [Example 20]
IC50 [1]: 4.8 nM | IC50 [2]: 7.3 nM

CN[C@@H](C)C(=O)N[C@H](C(=O)N1C[C@@H]2C[C@H]1C(=O)N[C@@H](Cc1ccc3ccccc3c1)C(=O)N[C@H](C(=O)O)Cc1ccc(cc1)CCCC[C@H]1C[C@@H](C(=O)N[C@@H](Cc3ccc4ccccc4c3)C(=O)N[C@H](C(=O)NS(=O)(=O)C3CC3)Cc3ccc(cc3)OCc3cn2nn3)N(C(=O)[C@@H](NC(=O)[C@H](C)NC)C(C)(C)C)C1)C(C)(C)C [Example 119]
IC50 [1]: 2.8 nM | IC50 [2]: 3.4 nM

CC(C)[C@H](NC(=O)[C@H](C)N(C)C(=O)OC(C)(C)C)C(=O)N[C@H]1C/C=C/CC[C@@H](C(=O)O)NC(=O)[C@H](Cc2ccccc2)NC(=O)[C@@H]2CN(CCNC(=O)CC[C@@H](C(=O)OC(C)(C)C)NC(=O)[C@H](Cc3ccccc3)NC1=O)CCN2C(=O)[C@@H](NC(=O)[C@H](C)N(C)C(=O)OC(C)(C)C)C(C)C [Example 82]
IC50 [1]: 1100 nM | IC50 [2]: 2090 nM

CN[C@@H](C)C(=O)N[C@H](C(=O)N1C[C@H]2C/C=C/COc3ccc(cc3)C[C@@H](C(=O)O)NC(=O)[C@H]([C@H](C)c3ccc4ccccc4c3)NC(=O)[C@@H]3C[C@@H](CN3C(=O)[C@@H](NC(=O)[C@H](C)NC)C(C)(C)C)n3cc(nn3)COc3ccc(cc3)C[C@@H](C(=O)NS(=O)(=O)C3CC3)NC(=O)[C@H](Cc3ccc4ccccc4c3)NC(=O)[C@@H]1C2)C(C)(C)C [Example 98]
IC50 [1]: 4.4 nM | IC50 [2]: 2.2 nM

CN[C@@H](C)C(=O)N[C@H](C(=O)N1C[C@@H]2C[C@H]1C(=O)N[C@@H](Cc1ccc3ccccc3c1)C(=O)N[C@H](C(=O)O)Cc1ccc(cc1)OC/C=C/CO[C@H]1C[C@@H](C(=O)N[C@@H](Cc3ccc(-c4ccc(O)cc4)cc3)C(=O)N[C@H](C(=O)NS(=O)(=O)C3CC3)Cc3ccc(cc3)OCc3cn2nn3)N(C(=O)[C@@H](NC(=O)[C@H](C)NC)C(C)(C)C)C1)C(C)(C)C [Example 113]
IC50 [1]: 13.5 nM | IC50 [2]: 7.1 nM

CN[C@@H](C)C(=O)N[C@H](C(=O)N1C[C@@H]2C[C@H]1C(=O)N[C@@H](Cc1ccc3ccccc3c1)C(=O)N[C@H](C(=O)O)CCC(=O)N[C@H]1C[C@@H](C(=O)N[C@@H](Cc3ccc4ccccc4c3)C(=O)N[C@H](C(=O)O)Cc3ccc(cc3)OC/C=C/CO2)N(C(=O)[C@@H](NC(=O)[C@H](C)NC)C(C)(C)C)C1)C(C)C [Example 56]
IC50 [1]: 57.9 nM | IC50 [2]: 5.9 nM

CN[C@@H](C)C(=O)N[C@H](C(=O)N1CC[C@@H]2OC/C=C/COc3ccc(cc3)C[C@@H](C(=O)O)NC(=O)[C@H](Cc3ccc4ccccc4c3)NC(=O)[C@@H]3[C@@H](CCN3C(=O)[C@@H](NC(=O)[C@H](C)NC)C(C)(C)C)OCc3cn(nn3)CCC[C@@H](C(=O)O)NC(=O)[C@H](Cc3ccc4ccccc4c3)NC(=O)[C@H]21)C(C)(C)C [Example 11]
IC50 [1]: 0.8 nM | IC50 [2]: 2.3 nM

CCCCCCCCCCCCS(=O)(=O)NC(=O)[C@@H]1Cc2ccc(cc2)OC/C=C/C[C@H]2C[C@@H](C(=O)N[C@@H](Cc3ccc4ccccc4c3)C(=O)N[C@H](C(=O)O)Cc3ccc(cc3)OCc3cn(nn3)[C@H]3C[C@@H](C(=O)N[C@@H](Cc4ccc5ccccc5c4)C(=O)N1)N(C(=O)[C@@H](NC(=O)[C@H](C)NC)C(C)(C)C)C3)N(C(=O)[C@@H](NC(=O)[C@H](C)NC)C(C)(C)C)C2 [Example 23]
IC50 [1]: 34.2 nM | IC50 [2]: 6.9 nM
